Literature values as cited in patent US11081240B2, “Methods for treatment of hypertension with an angiotensin II receptor blocker pharmaceutical composition” (AstraZeneca UK Limited, priority 2018, dated 2021).

Experiments:
[1] = treatment of hypertension; at least 5 double-blind, placebo-controlled, randomized studies
[2] = administered with a lithium medication
[3] = co-administration of a potassium supplement with a single oral dose

effect of a potassium supplement on the pharmacokinetics of the drug [3]: no significant effect
Compound: CCOc1nc2cccc(C(=O)OCc3oc(=O)oc3C)c2n1Cc1ccc(-c2ccccc2-c2noc(=O)[nH]2)cc1 [azilsartan medoxomil]
efficacy to lower blood pressure [1]: has been demonstrated | serum lithium concentrations / lithium toxicity on co-administration [2]: increases in the serum lithium concentrations and/or lithium toxicity have been observed
